As usually defined, the pEC50 is the negative decadic logarithm of the EC50, by convention in mol/L.

The record followed here is article PMC11204507, “Mechanistic Insights into the Neurotoxicity of 2,5-Dimethoxyphenethylamines (2C) and Corresponding N-(2-methoxybenzyl)phenethylamine (NBOMe) Drugs” (Journal of Xenobiotics, 2024).

pEC50: −log10 of the molar value. Read-outs that look alike come from different tables or passages of the source.

For data set [1], the system named is primary rat cortical cultures. Briefly: Neutral red (NR) uptake cytotoxicity assay. In kind it is cell-based. The settings on record: for Bottom (baseline, % control) / Top (maximal cell death, % control): fitted NR curve, primary rat cortical neurons, 24 h; for pEC50: primary rat cortical cultures, 24 h of exposure, mean (95% CI). On the procedure:
Female Wistar rats were obtained from Charles River Laboratories. The animals were allowed free access to rat chow and water, being maintained on a 12 h/12 h light/dark cycle, under controlled temperature (20 ± 2 °C) and humidity (40–60%). Primary cortical cultures were prepared as previously described. Briefly, for embryo collection, the pregnant female Wistar rats were anesthetized with isoflurane and subsequently administered ketamine and xylazine (200 + 100 μL, intraperitoneal). At the end of the dissection procedures, the female rat was euthanized with the administration of sodium pentobarbital ([…]). The embryos were used between embryonic day 16 (E16) and E19, considering the mating day as E0. The embryos were dissected from the uterus, and the heads were decapitated and placed in ice-cold 0.1 M PBS supplemented with 0.6% (w/v) glucose. The cortex dissection was performed under a Zeiss stereo microscope (Stemi DV4). Following trypsinization (0.05% trypsin/EDTA) and DNAse I treatment, the tissue pieces were mechanically dissociated, and the cells seeded in freshly prepared neurobasal medium (supplemented with 2% B-27, 100 U/mL of penicillin, 100 μg/mL of streptomycin, and 1% GlutaMAX^TM supplement) at a density of 150,000 cells/cm^2 in 96-well plates precoated, overnight, with 0.05 mg/mL PLL solution (prepared in 0.1 M borate buffer, pH 8.5). The cultures were maintained at 37 °C in a 5% CO2 air atmosphere. The medium was renewed at 4 days in vitro (DIV) by replacing half of the volume with fresh medium, and the cultures were used at 8 DIV.
(§1) The differentiated SH-SY5Y cells (25,000 cells/cm^2) and primary rat cortical cultures (150,000 cells/cm^2) were seeded onto 96-well plates as previously described.
(§2) Accordingly, 6 days after seeding (differentiated SH-SY5Y cells) or at 8 DIV (primary cultures), the cells were exposed, for 24 h (37 °C, 5% CO2), to different concentrations of the drugs (0–1000 µM). Thus, the tested concentrations ranged from 0 to 1000 µM for 2C-T-2 and 2C-T-4; 0 to 500 µM for 2C-T-7; 0 to 250 µM for 25T2-NBOMe, and 0 to 100 µM for 25T4-NBOMe and 25T7-NBOMe.
(§3) The NR uptake assay is based on the detection of viable cells through the incorporation of the NR dye by the cell’s lysosomes. In brief, after 24 h of exposure to the tested drugs, the differentiated SH-SY5Y cells and primary rat cortical cultures were incubated with NR (50 µg/mL in complete medium) for 90 or 210 min, respectively, at 37 °C, in a 5% CO2-95% air atmosphere. To extract the absorbed dye, an acidified ethanol solution was used, and the absorbance was then measured at 540 nm in a multi-well plate reader (PowerWaveX, BioTek Instruments, Winooski, VT, USA). The cytotoxicity was estimated by the percentage of NR uptake relative to the control cells, and a minimum of 4 independent experiments were conducted in triplicate.

The subject of data set [2] is differentiated SH-SY5Y cells. Nature of the data set: Total glutathione (tGSH) levels, DTNB-GSH recycling assay. The settings on record: control 100.0%. In kind it is cell-based, human. The source says:
Glutathione has a critical role in cellular physiology, playing multiple essential roles in maintaining cellular health and function, including antioxidant defense, detoxification, and cellular signaling. The 5,5′-dithiobis(2-nitrobenzoic acid) (DTNB)-GSH recycling assay was used to measure total GSH (tGSH), which includes the reduced (GSH) and oxidized (GSSG) forms of glutathione. The assay relies on the reaction of GSH with DTNB, producing the yellow-colored 5-thio-2-nitrobenzoic acid (TNB). Thus, the TNB generated is directly proportional to the amount of GSH present in the sample [31].
Thus, the SH-SY5Y cells were seeded onto 6-well plates (25,000 cells/cm^2) following the previously described seeding and differentiation protocol. On the day of the experiment, the cells were exposed to different concentrations of the tested drugs (EC20 and EC50) for 24 h (37 °C, 5% CO2). At the end of the incubation period, the cells were centrifuged (5 min, 250 g, 4 °C). For the analysis of extracellular GSH levels, the supernatants were collected, and proteins precipitated with 30% HClO4 for at least 30 min (4 °C). For the analysis of intracellular GSH levels, after collecting the supernatants, the cells were treated with 5% HClO4 for at least 30 min (4 °C). Subsequently, the acidic samples were collected from the plates and centrifuged (5 min, 16,000× g, 4 °C), and the supernatants were stored until further analysis (−80 °C). To assess protein content, the pellets were resuspended in 1M NaOH, maintained at 4 °C overnight, and stored until further analysis (−20 °C). A Bio-Rad DC™ protein assay kit (Bio-Rad Laboratories, Hercules, CA, USA) was used to analyze protein content, in accordance with the manufacturer’s guidelines.
Before the tGSH quantification, the acidic samples were diluted (1:2) with 5% HClO4, and the diluted samples/standards were neutralized with an ice-cold KHCO3 solution (1:1) and centrifuged (5 min, 16,000× g, 4 °C).
Then, 100 µL of supernatant from each sample/standard was transferred into a 96-well plate and 65 µL of an extemporaneous reagent solution (0.68 mM NADPH and 3.96 mM DTNB prepared in a 7.5 pH phosphate buffer) was added to each well, and the plates were incubated for 15 min at 30 °C. After 15 min, 40 μL of a 10 U/mL glutathione reductase solution was added to each well and the formation of 5-thio-2-nitrobenzoic acid (TNB) was monitored every 10 s for 3 min (kinetic mode) at 415 nm in a multi-well plate reader (PowerWaveX, BioTek Instruments, Winooski, VT, USA).
The GSH levels were standardized to protein content. The results are presented as a percentage relative to the control cells (0 µM). A minimum of 6 independent experiments were conducted, in duplicate.
Glutamate/cysteine ligase (GCL), also recognized as gamma-glutamylcysteine synthetase (γ-GCS), is a key enzyme in the first step of glutathione biosynthesis, as it catalyzes the reaction between glutamate and cysteine to produce γ-glutamylcysteine. […] The SH-SY5Y cells were seeded onto 6-well plates (25,000 cells/cm^2) following the previously described seeding and differentiation protocol. On the day of the experiment, the cells were incubated with BSO (100 µM) for 24 h (37 °C, 5% CO2) and the quantification of GSH intracellular levels was achieved according to the previously described method in Section 2.11.

The test system of data set [3] is differentiated SH-SY5Y cells. Nature of the data set: Neutral red (NR) uptake cytotoxicity assay. In kind it is cell-based, human. The settings on record: for pEC50: Homo sapiens; for EC20 (concentration inducing 20% of cytotoxicity) / EC80 (concentration inducing 80% of cytotoxicity): NR uptake; for Bottom (baseline, % control) / Top (maximal cell death, % control): fitted NR curve, SH-SY5Y cells. On the procedure: The cells were seeded at a density of 25,000 cells/cm^2. To achieve a more mature neuron-like phenotype, SH-SY5Y cells were initially cultured in a complete medium supplemented with RA (10 µM). Subsequently, 3 days post-seeding, TPA (80 nM) was added to each well, and the cells were maintained for another 3 days until use, thus achieving a dopaminergic phenotype. In all the experiments, the cells were used between passages 22 and 28.
as §1, §2, §3

Where [4] appears, read: bound stated for both SH-SY5Y cells and primary rat cortical cultures, 24 h, read-out: EC50 values, NR uptake assay, both cellular models.
[5] abbreviates: differentiated SH-SY5Y cells, 24 h of exposure, mean (95% CI), read-out: NR EC50 Values.
Setting [6] is: differentiated SH-SY5Y cells, 24 h, mean (95% CI).

`CCSc1cc(OC)c(CCN)cc1OC.Cl` [2C-T-2, 2-(4-(ethylthio)-2,5-dimethoxyphenyl)ethan-1-aminium chloride]: the “Bottom (baseline, % control)” value in data set [1] is recorded as 1.639 % control; in data set [3] (24 h) it was 4.054 % control. For the same molecule, the “Top (maximal cell death, % control)” value is listed as 83.85 % control in data set [1] and 100.0 % control in data set [3] (24 h). Moreover, the pEC50 in data set [1] is 3.66; in data set [3] (setting [4]), < 3.67; in data set [3] (setting [5]), 3.61. The “intracellular tGSH levels, % of control cells” value (“intracellular tGSH levels, %” below) in data set [2] (drug at its EC20, 24 h) was determined as 87.0%; in data set [2] (drug at its EC50, 24 h) it was 80.0%. The “EC20 (concentration inducing 20% of cytotoxicity)” value in data set [3] (setting [6]) is 123.2 (107.1 to 138.8) μM. Also, the “EC80 (concentration inducing 80% of cytotoxicity)” value in data set [3] (setting [6]) is recorded as 491.0 (413.7 to 514.4) μM.
Take `COc1cc(SC(C)C)c(OC)cc1CCN.Cl` [2C-T-4, 2-(4-(isopropylthio)-2,5-dimethoxyphenyl)ethan-1-aminium chloride]: in data set [1], the “Bottom (baseline, % control)” value came out at 0.7855 % control; the “Top (maximal cell death, % control)” value is 82.56 % control; the pEC50 is 3.96. For the same molecule, the “intracellular tGSH levels, %” value in data set [2] (drug at its EC20, 24 h) was determined as 81.4%. For the same molecule, the “intracellular tGSH levels, %” value in data set [2] (drug at its EC50, 24 h) was 75.8%. Moreover, the pEC50 in data set [3] (setting [5]) is 3.81. Moreover, in data set [3] (setting [6]), the “EC20 (concentration inducing 20% of cytotoxicity)” value is 81.5 (79.9 to 92.1) μM and the “EC80 (concentration inducing 80% of cytotoxicity)” value was 291.4 (255.9 to 342.3) μM. In data set [3] (24 h), the “Bottom (baseline, % control)” value amounted to 5.069 % control and the “Top (maximal cell death, % control)” value came out at 96.98 % control.
As for `CCCSc1cc(OC)c(CCN)cc1OC.Cl` [2C-T-7, 2-(2,5-dimethoxy-4-(propylthio)phenyl)ethan-1-aminium chloride], the “Bottom (baseline, % control)” value is 1.452 % control in data set [1] and 6.754 % control in data set [3] (24 h). Moreover, the “Top (maximal cell death, % control)” value in data set [1] is given as 84.63 % control; in data set [3] (24 h), 97.99 % control. In addition, the pEC50 in data set [1] was 4.13; in data set [3] (setting [4]) it was > 4.12; in data set [3] (setting [5]), 4.13. The “intracellular tGSH levels, %” value in data set [2] (drug at its EC20, 24 h) is 84.2%; in data set [2] (drug at its EC50, 24 h), 82.4%. The “EC20 (concentration inducing 20% of cytotoxicity)” value in data set [3] (setting [6]) is 39.5 (34.4 to 44.4) μM. For the same molecule, in data set [3] (setting [6]), the “EC80 (concentration inducing 80% of cytotoxicity)” value was 140.5 (125.4 to 161.2) μM.
On to `CCSc1cc(OC)c(CCNCc2ccccc2OC)cc1OC.Cl` [25T2-NBOMe, 2-(4-(ethylthio)-2,5-dimethoxyphenyl)-N-(2-methoxybenzyl)ethan-1-aminium chloride], for which the “Bottom (baseline, % control)” value turned out to be 3.637 % control in data set [1] and 1.962 % control in data set [3] (24 h). For the same molecule, the “Top (maximal cell death, % control)” value is reported as 81.45 % control in data set [1] and 98.41 % control in data set [3] (24 h). Further, the pEC50 in data set [1] was 4.58; in data set [3] (setting [4]), < 4.60; in data set [3] (setting [5]) it was 4.43. Moreover, the “intracellular tGSH levels, %” value in data set [2] (drug at its EC20, 24 h) is listed as 54.4%; in data set [2] (drug at its EC50, 24 h) it was 49.2%.
Turning to `COc1cc(SC(C)C)c(OC)cc1CCNCc1ccccc1OC.Cl` [25T4-NBOMe, 2-(4-(isopropylthio)-2,5-dimethoxyphenyl)-N-(2-methoxybenzyl)ethan-1-aminium chloride], in data set [1], the “Bottom (baseline, % control)” value is given as 2.059 % control. The “Top (maximal cell death, % control)” value stood at 83.51 % control in data set [1] and 100.0 % control in data set [3] (24 h). In addition, the pEC50 in data set [1] is 4.70; in data set [3] (setting [5]), 4.45. The “intracellular tGSH levels, %” value in data set [2] (drug at its EC20, 24 h) is on record as 71.2%; in data set [2] (drug at its EC50, 24 h), 60.3%.
For `CCCSc1cc(OC)c(CCNCc2ccccc2OC)cc1OC.Cl` [25T7-NBOMe, 2-(2,5-dimethoxy-4-(propylthio)phenyl)-N-(2-methoxybenzyl)ethan-1-aminium chloride], the “Bottom (baseline, % control)” value in data set [1] is given as 3.972 % control; in data set [3] (24 h), 8.660 % control. The “Top (maximal cell death, % control)” value amounted to 82.95 % control in data set [1] and 94.74 % control in data set [3] (24 h). Further, the pEC50 in data set [1] is 4.84; in data set [3] (setting [4]) it was > 4.66; in data set [3] (setting [5]), 4.66. Further, the “intracellular tGSH levels, %” value was found to be 72.2% in data set [2] (drug at its EC20, 24 h) and 52.0% in data set [2] (drug at its EC50, 24 h).
